Measurements: patent US20080275009A1, “ORAL ADMINISTRATION OF N-(2-CHLORO-6-METHYLPHENYL)-2-[[6-[4-(2-HYDROXYETHYL)-1-PIPERAZINYL]-2-METHYL-4-PYRIMIDINYL]AMINO]-1,3-THIAZOLE-5-CARBOXAMIDE AND SALTS THEREOF” (Bristol-Myers Squibb Company, priority 2005, published 2008)

What was measured:
EPH receptor = conditions: general statement, method or value not given; cited from earlier work
PDGF receptor = conditions: general statement, method or value not given; cited from earlier work
[1] = aqueous solubility of Compound I as a function of pH; type: physicochemical; conditions: aqueous medium, pH of 2 compared with pH of 5

Cc1nc(Nc2ncc(C(=O)Nc3c(C)cccc3Cl)s2)cc(N2CCN(CCO)CC2)n1 [Compound I, N-(2-chloro-6-methylphenyl)-2-((6-(4-(2-hydroxyethyl)-1-piperazinyl)-2-methyl-4-pyrimidinyl)amino)-1,3-thiazole-5-carboxamide]
inhibition of EPH receptor (EPH receptor): potent inhibitor | inhibition of PDGF receptor (PDGF receptor): potent inhibitor | aqueous solubility [1]: higher solubility at a pH of 2 than at a pH of 5
